Laboratory results from publication PMC5482477, “Overexpression and characterization of two types of nitrile hydratases from Rhodococcus rhodochrous J1” (PLoS ONE, 2017).

Biological target: T1, H-NHase (NhhBA) (Rhodococcus rhodochrous, UniProt P21219+P21220)
T1 construct: gene nhhA; alpha10beta10, 504 kDa by gel filtration; cobalt-containing
T1 sequence (P21219 2-203): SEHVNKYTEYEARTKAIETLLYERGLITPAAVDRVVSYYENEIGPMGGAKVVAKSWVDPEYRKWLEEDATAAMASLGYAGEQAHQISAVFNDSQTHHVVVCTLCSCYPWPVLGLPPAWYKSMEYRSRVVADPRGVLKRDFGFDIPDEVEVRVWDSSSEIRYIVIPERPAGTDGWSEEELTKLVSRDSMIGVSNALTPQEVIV
T1 sequence (P21220 1-229): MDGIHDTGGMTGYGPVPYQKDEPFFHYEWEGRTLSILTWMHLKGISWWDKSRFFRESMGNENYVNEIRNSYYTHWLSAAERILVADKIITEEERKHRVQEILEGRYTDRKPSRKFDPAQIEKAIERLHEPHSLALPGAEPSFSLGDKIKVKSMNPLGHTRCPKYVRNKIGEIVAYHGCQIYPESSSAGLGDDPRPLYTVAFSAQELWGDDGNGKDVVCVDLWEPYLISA
Assay: residual activity after […] min treatment, HPLC
Type: biochemical

NC(=O)c1cccnc1 [nicotinamide]
remaining activity at 1.5 M: 60%
